The text below walks through data of patent publication US20230276803A1, “A PESTICIDALLY ACTIVE MIXTURE COMPRISING THIETANYLOXY COMPOUND, OXIDES OR SALTS THEREOF” (PI INDUSTRIES LTD., priority 2020, published 2023).

Like-named read-outs stand apart in the source and are kept apart here.

Format in all cases: in vivo
One experiment deals with Plutella xylostella. The experiment in a line: Leaf dip method (cabbage) against Plutella xylostella (Example C). The following applies: 72 h. The source says:
(§1) In which E represents the expected percentage of inhibition of the pests for the combination of two insecticides or one insecticide and one fungicide at defined doses (for example equal to x and y respectively), x is the percentage of inhibition observed for the pest/disease by the compound (1) at a given dose (equal to x), y is the percentage of inhibition observed for the pest/disease by the compound (2) or (3) at a defined dose (equal to y). When the percentage of inhibition observed for the combination is greater than E, there is a synergistic effect.
The leaf dip method was used, wherein the required quantity of the compound or respective compound combinations were weighed and dissolved in a test solution prepared in tubes. The tubes were put on a vortex at 2000 rpm for 90 min for proper mixing and then diluted with a 0.01% Triton-X solution to the desired test concentration. Cabbage leaves were dipped into the solution for 10 seconds, shade dried for 20 min and then transferred to single cells of bioassay trays. A single second instar larva was released into each cell and the tray was covered with a lid. The bio-assay trays were kept under laboratory conditions at a temperature of 25° C. and relative humidity of 70%. Observations on dead, moribund and live larvae were recorded 72 h after the release. Percent mortality was calculated by combining dead and moribund larvae and comparing the result with the one of the untreated control. The results are shown for compound of formula (I-1) in Table C.

In the next experiment the test system is Helicoverpa armigera. The experiment in a line: Diet incorporation method against Helicoverpa armigera (Example A). To be noted: 96 h.
Text: as §1
The diet incorporation method was used, in which semi-synthetic diet was incorporated into the test solutions consisting either of the single compounds or respective compound combinations, when the temperature was approximately 50° C. in the bio-assay containers, then stirred thoroughly for proper mixing and allowed to cool for 30 min. The solidified diet was cut into equal pieces, and then each piece was transferred into one cell of a bio-assay tray. A single starved third instar larva was released into each of these cells of the bio-assay trays and the tray was covered with a lid. The bio-assay trays were kept under laboratory conditions at a temperature of 25° C. and relative humidity of 70%. Observations on dead, moribund and live larvae were recorded 96 h after the release of the larvae. Percent mortality was calculated by combining dead and moribund larvae and comparing the result to the one of the untreated control. The results are shown for the compound of formula (I-1) in Table A.

For a further experiment, the system named is Spodoptera litura. As to the kind of experiment: Diet incorporation method against Spodoptera litura (Example B). The following applies: 96 h; for pest or weed control at 10 ppm: read-out: Observed Efficacy (%), 10 ppm.
Text: as §1
The diet incorporation method was used, in which semi-synthetic diet was incorporated into the test solution consisting either of the single compound or respective compound combinations, when the temperature was approximately 50° C. in the bioassay containers, then stirred thoroughly for proper mixing and allowed to cool for 30 min. The solidified diet was cut into equal pieces, and then each piece was transferred into one cell of the bio-assay trays. A single starved third instar larva was released into each of these cells of the bio-assay trays and the tray was covered with a lid. The bio-assay trays were kept under laboratory conditions at a temperature of 25° C. and relative humidity of 70%. Observations on dead, moribund and live larvae were recorded 96 h after the release. Percent mortality was calculated by combining dead and moribund larvae and comparing the result with the one of the untreated control. The results are shown for the compound of formula (I-1) in Table B.

The subject of a further experiment is Erysiphe cichoracearum. The experiment in a line: Preventive glasshouse test against Erysiphe cichoracearum in cucumber (Example K). The following applies: 50 ppm, preventive spray.
Text: as §1
The single compounds or the respective compound combinations were dissolved in 2% dimethyl sulfoxide/acetone and then mixed with water containing emulsifier to a calibrated spray volume of 50 mL. The test solutions were poured into spray bottles for further applications. […]
A visual assessment of the performance of the compounds and the respective compound combinations was carried out by rating the disease severity (0-100% scale) on treated plants 3, 7, 10 and 15 days after application. Efficacy (% control) of the single compounds or compound combinations was calculated by comparing the disease rating in the treatment with the one of the untreated control. The compounds were also assessed for their plant compatibility by recording symptoms like necrosis, chlorosis and stunting. […]

Another experiment concerns Alternaria solani. The experiment in a line: Preventive glasshouse test against Alternaria solani in tomato (Example G). The following applies: 100 ppm, preventive spray.
Text: as §1
(§2) The single compounds or respective compound combinations were dissolved in 2% dimethyl sulfoxide/acetone and then mixed with water containing emulsifier to a calibrated spray volume of 50 mL. The test solutions were poured into spray bottles for further applications.
To test the preventive activity, healthy young tomato plants, raised in the greenhouse, were sprayed with the active compound preparation at the stated application rates inside the spray cabinets using hollow cone nozzles. One day after treatment, the plants were inoculated with a spore suspension containing 0.24×10^6 Alternaria solani inoculum and 2% Malt. The inoculated plants were then kept in a greenhouse chamber at a temperature of 22-24° C. and 90-95% relative humidity for disease expression.
A visual assessment of the performance of the single compounds or compound combinations was carried out by rating the disease severity (0-100% scale) on treated plants 3, 7, 10 and 15 days after application. Efficacy (% control) of the single compounds and mixtures was calculated by comparing the disease rating in the treatment with the one of the untreated control. The compounds were also assessed for their plant compatibility by recording symptoms like necrosis, chlorosis and stunting. The results have been described for the compound of formula (I-1) in Table G.

Experiment [1] concerns Parastagonospora nodorum/Septoria nodorum/Stagnospora nodorum. As to the kind of experiment: Preventive glasshouse test against Septoria nodorum in wheat (Example J). To be noted: preventive spray.
Text: as §1, §2
[…] One day after treatment, the plants were inoculated with a spore suspension containing 2.8×10^6 Stagnospora nodorum inoculum.
The inoculated plants were then kept in a greenhouse chamber at 22-25° C. temperature and 90-100% relative humidity for disease expression.
A visual assessment of the performance of the single compounds or compound combinations was carried out by rating the disease severity (0-100% scale) on treated plants 3, 7, 10 and 15 days after application. Efficacy (% control) of the single compounds and mixtures was calculated by comparing the disease rating in the treatment with the one of the untreated control. The compounds were also assessed for their plant compatibility by recording symptoms like necrosis, chlorosis and stunting. The results have been described for the compound of formula (I-1) in Table J.

The next experiment deals with Phakopsora pachyrhizi. As to the kind of experiment: Preventive glasshouse test against Phakopsora pachyrhizi in soybean (Example H). To be noted: preventive spray.
Text: as §1
The single compounds or the respective compound combinations were dissolved in 2% dimethyl sulfoxide/acetone and then mixed with water containing an emulsifier to a calibrated spray volume of 50 ml. The test solutions were poured into spray bottles for further applications.
To test the preventive activity of compounds, healthy young Soybean plants, raised in the greenhouse, were sprayed with the active compound preparation at the stated application rates inside the spray cabinets using hollow cone nozzles. One day after treatment, the plants were inoculated with a suspension containing 2×10^5 Phakopsora pachyrhizi conidia. The inoculated plants were then kept in a greenhouse chamber at a temperature of 22-24° C. and 80-90% relative humidity for disease expression.
A visual assessment of the performance of the single compounds and respective compound combinations was carried out by rating the disease severity (0-100% scale) on treated plants 3, 7, 10 and 15 days after application. Efficacy (% control) of the compounds was calculated by comparing the disease rating in the treatment with the one of the untreated control. The compounds were also assessed for their plant compatibility by recording symptoms like necrosis, chlorosis and stunting. The results have been described for the compound of formula (I-1) in Table H.

Setting [2] is: Helicoverpa armigera, read-out: Observed Efficacy (%).
Setting [3] is: Plutella xylostella, foliar, read-out: Observed Efficacy (%).

As to `CCOCn1c(-c2ccc(Cl)cc2)c(C#N)c(Br)c1C(F)(F)F` [Chlorfenapyr, chlorfenapyr], the pest or weed control at 0.15 ppm in the experiment with Plutella xylostella (Plutella xylostella, foliar, 0.15 ppm, read-out: Observed Efficacy (%)) came to 62.5%. In addition, the pest or weed control at 0.2 ppm with Plutella xylostella (Plutella xylostella, foliar, 0.2 ppm, read-out: Observed Efficacy (%)) stood at 75%.

As to `COC(=O)N(OC)c1ccccc1COc1ccn(-c2ccc(Cl)cc2)n1` [Pyraclostrobin, pyraclostrobin], the pest or weed control at 200 ppm turned out to be 0% in the experiment with Helicoverpa armigera (setting [2]) and 0% in the experiment with Spodoptera litura (read-out: Observed Efficacy (%), 200 ppm). Further, the pest or weed control at 500 ppm with Helicoverpa armigera (Helicoverpa armigera, 500 ppm, read-out: Observed Efficacy (%)) came out at 0%; in the experiment with Spodoptera litura (read-out: Observed Efficacy (%), 500 ppm), 0%.

In the case of `CCc1nc2cc(C)c(Oc3ccc(OC(F)(F)F)cc3)cc2c(OC(=O)OC)c1C` [Flometoquin, flometoquin], the “Observed Efficacy (%)” value in the experiment with Plutella xylostella (0.001 ppm) was determined as 0%; in the experiment with Plutella xylostella (0.005 ppm) it was 62.5%.

For the compound `N#Cc1nn(-c2c(Cl)cc(C(F)(F)F)cc2Cl)c(N)c1[S+]([O-])C(F)(F)F` (stereo not shown) [Fipronil, fipronil], the pest or weed control at 0.005 ppm with Plutella xylostella (Plutella xylostella, foliar, 0.005 ppm, read-out: Observed Efficacy (%)) amounted to 50%.

For `COC(=O)NC(=S)Nc1ccccc1NC(=S)NC(=O)OC` [Thiophanate-methyl, thiophanate-methyl], the “Observed Efficacy (%)” value with Erysiphe cichoracearum is 29%.

Consider `CCS(=O)(=O)c1cccnc1-c1nc2cc(S(=O)(=O)C(F)(F)F)ccc2o1` [Oxazosulfyl, 2-[3-(ethanesulfonyl)pyridin-2-yl]-5-[trifluoro(methanesulfonyl)]-1,3-benzoxazole], for which the pest or weed control at 0.1 ppm in the experiment with Plutella xylostella (setting [3]) came out at 0%. Moreover, the pest or weed control at 100 ppm in the experiment with Spodoptera litura (100 ppm, read-out: Observed Efficacy (%)) came out at 0%.

Turning to `CC1=NNC(=O)N(/N=C/c2cccnc2)C1` [Pymetrozine, pymetrozine], the pest or weed control at 0.01 ppm in the experiment with Plutella xylostella (Plutella xylostella, foliar, 0.01 ppm, read-out: Observed Efficacy (%)) was found to be 0%. Further, the pest or weed control at 0.05 ppm in the experiment with Plutella xylostella (setting [3]) was determined as 0%.

For the compound `FC(F)(F)c1ccc(OCCCOc2c(Cl)cc(OCC=C(Cl)Cl)cc2Cl)nc1` [Pyridalyl, pyridalyl], in the experiment on Plutella xylostella (Plutella xylostella, foliar, 0.002 ppm, read-out: Observed Efficacy (%)), the pest or weed control at 0.002 ppm came out at 50%.

As for `O=[N+]([O-])NC1=NCCN1Cc1ccc(Cl)nc1` [Imidacloprid, imidacloprid], in the experiment with Plutella xylostella (setting [3]), the pest or weed control at 0.1 ppm turned out to be 0%. The pest or weed control at 50 ppm in the experiment with Spodoptera litura (read-out: Observed Efficacy (%), 50 ppm) amounted to 25%.

`N#Cc1ccc(CC(=NNC(=O)Nc2ccc(OC(F)(F)F)cc2)c2cccc(C(F)(F)F)c2)cc1` (mixture of isomers) [Metaflumizone, metaflumizone]: the “Observed Efficacy (%)” value in the experiment on Plutella xylostella (0.001 ppm) is reported as 12.5%.

`CN/C(=N\[N+](=O)[O-])NCc1cnc(Cl)s1` [Clothianidin, clothianidin]: the pest or weed control at 0.1 ppm in the experiment with Plutella xylostella (setting [3]) turned out to be 0%. In addition, in the experiment on Spodoptera litura, the pest or weed control at 10 ppm was determined as 0%.

Consider `COCC(=O)N(c1c(C)cccc1C)C(C)C(=O)OC` (stereo not shown) [Metalaxyl, metalaxyl], for which the “Observed Efficacy (%)” value with Alternaria solani amounted to 17%. The pest or weed control at 100 ppm with Spodoptera litura (read-out: Observed Efficacy (%), 100 ppm) is 0%.

In the case of `CN1COCN(Cc2cnc(Cl)s2)/C1=N\[N+](=O)[O-]` [Thiamethoxam, thiamethoxam], the pest or weed control at 1 ppm in the experiment on Plutella xylostella (setting [3]) was 12.5%.

On to spinetoram, for which the “Observed Efficacy (%)” value in the experiment on Helicoverpa armigera (2.5 ppm) is recorded as 87.5%.

With `Cc1c(COC(=O)[C@@H]2[C@H](/C=C(\Cl)C(F)(F)F)C2(C)C)cccc1-c1ccccc1` (racemic) [Bifenthrin, bifenthrin], the pest or weed control at 1 ppm with Plutella xylostella (setting [3]) was determined as 25%. The pest or weed control at 20 ppm with Helicoverpa armigera (Helicoverpa armigera, 20 ppm, read-out: Observed Efficacy (%)) worked out at 75%. The pest or weed control at 10 ppm in the experiment on Spodoptera litura was 12.5%.

For `CCN(C(=O)CCSCCC(F)(F)F)c1cn(-c2cccnc2)nc1Cl` [Tyclopyrazoflor], in the experiment on Helicoverpa armigera (100 ppm), the “Observed Efficacy (%)” value is 12.5%.

For the compound `CO/C=C(/C(=O)OC)c1ccccc1Oc1cc(Oc2ccccc2C#N)ncn1` [Azoxystrobin, azoxystrobin], the “Observed Efficacy (%)” value in experiment [1] (0.05 ppm) is 12%; in experiment [1] (0.1 ppm) it was 24%; in the experiment on Phakopsora pachyrhizi (0.1 ppm), 39%.

Turning to `CC(COc1ccc(Oc2ccccc2)cc1)Oc1ccccn1` (stereo not shown) [Pyriproxyfen], in the experiment on Plutella xylostella (setting [3]), the pest or weed control at 0.05 ppm came out at 12.5%.

`N#Cc1c[nH]cc1-c1cccc2c1OC(F)(F)O2` [Fludioxonil, fludioxonil]: in the experiment on Helicoverpa armigera (Helicoverpa armigera, 100 ppm, read-out: Observed Efficacy (%)), the pest or weed control at 100 ppm was determined as 0%.

Turning to `Cn1cc(C(=O)Nc2ccccc2-c2cc(F)c(F)c(F)c2)c(C(F)F)n1` [Fluxapyroxad, fluxapyroxad], the “Observed Efficacy (%)” value in the experiment on Phakopsora pachyrhizi (0.05 ppm) turned out to be 41%.

Turning to `CON=CNC(=O)c1ccc(C2=NOC(c3cc(Cl)cc(Cl)c3)(C(F)(F)F)C2)cc1C` (stereo not shown) [Fluxametamide, fluxametamide], the “Observed Efficacy (%)” value with Helicoverpa armigera (0.13 ppm) and in the experiment with Helicoverpa armigera (0.28 ppm) was 12.5% throughout.

Turning to `C=CCOC1=NS(=O)(=O)c2ccccc21` [Probenazole, probenazole], the pest or weed control at 200 ppm with Helicoverpa armigera (setting [2]) was determined as 12.5%.
